Measurements published in patent US20140178315A1, “Topical Compositions Comprising Ionic Fluids” (Arch Chemicals, Inc., priority 2012, published 2014).

Conditions: 3 g salt added to 21 g anhydrous betaine glycolate ionic fluid; heated at 105° C. for 2 hours; remained a viscous fluid after cooling to room temperature

In the case of C[N+](C)(C)CC(=O)O.O=c1cc(CO)occ1[O-] [betaine kojiate], the “Solubility of betaine kojiate in betaine glycolate ionic fluid (appearance of the mixture)” value is reported as “formed a clear fluid”.
